These results are taken from patent publication US7638554B2, “Flavanoids as chemotherapeutic, chemopreventive, and antiangiogenic agents” (SRI International, priority 2002, dated 2009).

The subject of data set [1] is ovarian cancer cell line IGROV1. The experiment in a line: Growth inhibition, sulforhodamine-based protein determination, IGROV1. To be noted: Homo sapiens, IGROV-1, 144 h; continuous exposure six days. Format: cell-based. Here is the method:
(§1) The novel compound SR 13179 was assayed for its ability to inhibit growth in several cancer cell lines. The cell lines studied included breast cancer cell line MCF-7 (ER+); prostate cancer cell lines LNCaP, PC3, and DU145; lung cancer cell line A427; ovarian cancer cell lines IGROV1, OVCAR-3, OVCAR-4, OVCAR-5, OVCAR-8, and SK-OV-3; and colon cancer cell lines COLO 205, HCC-2998, HCT-116, HCT-15, HT29, KM12, AND SW-620.
(§2) The growth assays for the breast cancer cell lines were conducted according to the method of Example 16. For the other cell lines, each assay was conducted with continuous exposure to the test compound at four log concentrations for six days, using a sulforhodamine-based protein determination to measure growth inhibition.

Data set [2] concerns MCF-7 (ER+) breast cancer cell line. As to the kind of experiment: Growth inhibition assay, MTT, MCF-7 breast cancer cells. Format: cell-based, human. The conditions noted are these: Homo sapiens. On the procedure: (§3) Compounds of the invention were tested for their ability to inhibit growth in two breast cancer cell lines, MCF-7 (ER+) and MDA-MB-231 (ER−).
(§4) The growth inhibition assays were conducted using routine methods. Briefly, the cells were seeded in 24-well plates at a density of 2000 cells per well in 200 μL of […] growth medium. To each well was added 10 μL of DMSO containing the dissolved test compound; final DMSO concentration in each well was not more than 0.5%. Each test compound was assayed at concentrations of 0.4, 2, 10, and 50 μM. The plates were incubated for eight days, with the media and test solutions replaced every third day. On Day 8, the viable cells were measured by the MTT assay, as described in Mosmann et al. (1983), “Rapid Colorimetric Assay for Cellular Growth and Survival: Application to Proliferation and Cytotoxicity,” J. Immunol. Method. 65:55-63. The optical density at 575 nm of each test well was measured and compared to that for control wells, and the data used to calculate the percentage of growth inhibition at different concentrations. The IC50 value (the concentration of growth inhibitor that results in 50% growth inhibition of the cells in culture relative to control cells not exposed to any growth inhibitor) was determined by plotting dose-response curves.
(§5) The calculated IC50 values are set forth in Table 1, with the results representing the average of at least two experiments conducted for each compound at each of the four concentrations.

In the next data set the test system is TIMP-1. As to the kind of experiment: TIMP-1 protein expression, MCF-10-CA1a cells. It is filed as cell-based, human. From the text: (§6) Western Blotting. Proteins were separated by gel electrophoresis using 4-12% pre-cast SDS-polyacrylamide gels (Invitrogen, Carlsbad, Calif.) and then electrophoretically transferred onto Hybond™-P membrane (Amersham Biosciences, Piscataway, N.J.). Blots were probed with specific antibodies (Santa Cruz Biotechnology, Inc). The ECL Plus Western Blotting Detection System of Amersham Biosciences (Piscataway, N.J.) and the procedure recommended by the manufacturer was used for the detection of antigens. Protein bands were quantified by analyzing the images obtained using an Alphaimager™ S-3400 (Alpha Innotech Corp., San Leandro, Calif.).
(§7) The effects of SR 13179 on the protein expression of TIMP-1, TIMP-2, and membrane-type 1 MMP (MT1-MMP) were studied. SR13179 induced the protein expression of TIMP-2 in a dose- and time-dependent manner. MCF-10-CA1a cells were treated with SR 13179 at 1, 3, or 5 μM concentrations for 48 h, or, alternatively, with […] SR 13179 for 8, 24, or 48 h. Cells were lysed and subjected to Western blotting.
(§8) The effect of SR13179 on the extracellular levels of TIMP-2 as well as MMP-2 was also investigated. Treatment of MCF-10CA1a cells with SR13179 at 5 μM concentration caused 5- to 8-fold increase in the secreted level of TIMP-2 and a 2-fold decrease in the extracellular level of MMP-2. […]

Data set [3] relates to colon cancer cell line SW-620. As to the kind of experiment: Growth inhibition, sulforhodamine-based protein determination, SW-620. It is filed as cell-based. The conditions noted are these: Homo sapiens, SW-620, 144 h; continuous exposure six days. Here is the method: as §1, §2
For data set [4], the system named is ovarian cancer cell line OVCAR-3. The experiment in a line: Growth inhibition, sulforhodamine-based protein determination, OVCAR-3. Format: cell-based. The conditions noted are these: Homo sapiens, OVCAR-3, 144 h; continuous exposure six days. Here is the method: as §1, §2
The test system of data set [5] is MDA-MB-231 (ER−) breast cancer cell line. The experiment in a line: Growth inhibition assay, MTT, MDA-MB-231 breast cancer cells. Format: cell-based, human. The conditions noted are these: Homo sapiens, MDA-MB-231, 192 h, eight days, average of at least two experiments. Here is the method:
as §3, §4, §5

Another data set deals with MMP-9. As to the kind of experiment: Western blotting of cell-associated MMP-9 protein, MCF-10-CA1a cells. To be noted: 1, 3, or 5 μM, 48 h. It is filed as cell-based, human.
Source text: as §6
(§9) The effect of SR 13179 on cell-associated MMP-2 and MMP-9 protein levels was studied. MCF-10-CA1a cells were treated with SR 13179 at 1, 3, or 5 μM concentrations for 48 h. Untreated cells were used as control. Proteins were separated by SDS-Polyacrylamide gel electrophoresis and electrophoretically transformed onto Hybond™ P membrane (Amerhsam Biosciences). Blots were probed with specific antibodies (Santa Cruz Biotechnology Inc.).
(In western blotting, separated proteins are transferred to a membrane and probed.)

Data set [6] deals with membrane-type 1 MMP (MT1-MMP). As to the kind of experiment: MT1-MMP protein expression, MCF-10-CA1a cells. Format: cell-based, human.
Source text: as §6, §7, §8

In another data set the test system is TIMP-2. As to the kind of experiment: Western blotting of TIMP-2 protein expression, MCF-10-CA1a cells. Format: cell-based, human.
Source text: as §6, §7

Data set [7] deals with lung cancer cell line A427. As to the kind of experiment: Growth inhibition, sulforhodamine-based protein determination, A427. To be noted: Homo sapiens, A-427, 144 h; continuous exposure six days. Format: cell-based. Here is the method: as §1, §2
In another data set the test system is MMP-2. The experiment in a line: Western blotting of cell-associated MMP-2 protein, MCF-10-CA1a cells. Format: cell-based, human. The conditions noted are these: 1, 3, or 5 μM, 48 h.
Source text: as §6, §9

A further data set concerns MDA-MB-231 cells. The experiment in a line: Concurrent cytotoxicity assay (MTT), MDA-MB-231. Format: cell-based, human. The conditions noted are these: 5 μM, 22 h. On the procedure: The in vitro invasion through Matrigel was studied for two human breast cancer lines: MCF-10CA1a, a highly metastatic ER^+ line and MDA-MB-231, an ER^− line. […] At this concentration, SR13179 inhibited invasion of MDA-MB-231 by about 30% (and by 70% at 5 μM). To rule out a cytotoxic effect in the inhibition of invasion, a concurrent cytotoxicity assay was carried out and the number of viable cells was determined by MTT assay. There was less than 5% decrease in MDA-MB-231 cell viability at 5 μM concentration of SR13179 at 22 h. In the same experiment, a motility experiment was conducted, showing that cell migration was inhibited by about 20%.

Where two headings read alike, the source gives them in different places.

`COc1cc(C2CC(O)c3ccc4ccccc4c3O2)cc(OC)c1OC` (stereo not drawn) [SR 13179, 2-(3,4,5-trimethoxyphenyl)-3,4-dihydro-2H-benzo[h]chromen-4-ol]: the IC50 in data set [1] was determined as 281 nM; in [2] (MCF7, 192 h, MTT assay, eight days, average of at least two experiments, read-out: GROWTH INHIBITION (IC50) MCF-7 (ER+)), 1410 nM; in [2] (MCF7, Table 2, method of Example 16, read-out: IC50, growth inhibition, MCF-7 (ER+)), 1140 nM; in data set [3], 281 nM; in [4], 180 nM; in [5] it was 3.01 µM. Further, the IC50 in data set [7] came out at 510 nM. Also, the TIMP-1 protein levels entry in the data set with TIMP-1 was “no significant effect”. Besides, the “cell-associated MMP-9 protein levels” value in the data set on MMP-9 is “does not affect”. The MT1-MMP protein levels entry in data set [6] is given as “no significant effect”. The “Level of TIMP-2 Protein” value with TIMP-2 (1 μM, 48 h) came to 6.8; with TIMP-2 (3 μM, 48 h) it was 14.6; in the data set on TIMP-2 (5 μM, 48 h) it was 16.2; in the data set on TIMP-2 (8 h, 5 mM SR 13179) it was 7.9; in the data set on TIMP-2 (24 h, 5 mM SR 13179), 14.5; in the data set on TIMP-2 (48 h, 5 mM SR 13179) it was 15.9. Further, the “cell-associated MMP-2 protein levels” value in the data set on MMP-2 was “does not affect”. The “decrease in cell viability” value in the data set with MDA-MB-231 cells is given as “less than 5%”.

Usually IC50 stands for the concentration at which inhibition is half-maximal.
